Molecular target: 5-hydroxytryptamine receptor 2A (Homo sapiens, UniProt P28223)
Assay: Agonist activity at human 5-HT2A receptor expressed in cells assessed as increase in calcium mobilization by Calcium-6 dye based FLIPR assay
Assay type: functional, cell-based

5-hydroxytryptamine receptor 2A, sequence (P28223 whole entry): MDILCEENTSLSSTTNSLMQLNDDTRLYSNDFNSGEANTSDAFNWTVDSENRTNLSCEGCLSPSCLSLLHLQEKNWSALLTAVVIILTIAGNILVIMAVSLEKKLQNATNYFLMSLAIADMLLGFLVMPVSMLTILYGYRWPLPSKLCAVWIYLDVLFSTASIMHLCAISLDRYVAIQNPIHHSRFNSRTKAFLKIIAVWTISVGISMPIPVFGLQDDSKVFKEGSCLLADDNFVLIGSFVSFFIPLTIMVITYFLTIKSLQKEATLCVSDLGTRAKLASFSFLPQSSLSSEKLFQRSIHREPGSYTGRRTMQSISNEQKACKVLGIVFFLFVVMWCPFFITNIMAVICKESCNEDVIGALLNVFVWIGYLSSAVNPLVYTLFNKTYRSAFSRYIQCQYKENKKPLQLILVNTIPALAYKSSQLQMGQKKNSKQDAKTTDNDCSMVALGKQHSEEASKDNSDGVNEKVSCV

Row | Structure (SMILES) | EC50 [nM]
1 | [2H]C([2H])(c1c[nH]c2cccc(O)c12)[C@@H]1CCCN1 | < 1000
2 | [2H]C([2H])(c1c[nH]c2cccc(F)c12)[C@H]1CCCN1 | 1000
3 | [2H]C([2H])([2H])N1CCC[C@@H]1Cc1c[nH]c2cccc(F)c12 | < 1000
4 | [2H]C([2H])([2H])N1CCC[C@H]1Cc1c[nH]c2cccc(OCc3ccccc3)c12 | < 10000
5 | CN1CCC[C@@H]1Cc1c[nH]c2cccc(O)c12 | < 1000
6 | [2H]C([2H])(c1c[nH]c2cccc(OC)c12)[C@H]1CCCN1C([2H])([2H])[2H] | < 1000
7 | [2H]C([2H])(c1c[nH]c2cccc(F)c12)[C@H]1CCCN1C([2H])([2H])[2H] | < 1000
8 | [2H]C([2H])([2H])N1CCC[C@@H]1Cc1c[nH]c2cccc(O)c12 | < 1000
9 | [2H]C([2H])(c1c[nH]c2cccc(O)c12)[C@H]1CCCN1C([2H])([2H])[2H] | < 1000
10 | Oc1cccc2[nH]cc(C[C@H]3CCCN3)c12 | < 1000

Reference: ChEMBL document CHEMBL5131522, “3-Pyrrolidine-indole Derivatives as 5-HT2-Selective Receptor Modulators for the Potential Treatment of Mental Disorders” (ACS Med Chem Lett, 2022)
